Our source for the IC50 values is patent US20240124504A1, “AROMATIC HETEROCYCLIC COMPOUND, AND PHARMACEUTICAL COMPOSITION AND APPLICATION THEREOF” (GT APEIRON THERAPEUTICS LIMITED, priority 2020, published 2024).

Where only a bound is given, the exact number is not on record here.

As usually defined, the IC50 is the concentration at which inhibition is half-maximal.

Test [1] has as its system ovarian cancer A2780. Briefly: Cell biological activity detection (CyQuant, 72 hours), A2780. As to conditions: A2780 cells, incubation for 72 hours. The test is classed as cell-based, human. The essentials: (§1)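 IC50 derived from CyQuant Direct nuclear staining (488 nm excitation) after 72 h compound exposure at 37 °C, 5% CO2. Compounds tested in 9 concentrations from 10 μM, 1:4 steps, 0.2% DMSO, on A2780 or HCC70 cells plated overnight at 2000/well in RPMI 1640 + 10% FBS.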

In test [2] the test system is human breast cancer cells HCC70. Briefly: Cell biological activity detection (CyQuant, 72 hours), HCC70. The test is classed as cell-based. As to conditions: incubation for 72 hours. The essentials:
as §1

The target in test [3] is CDK7/cyclinH/MAT1 complex (Homo sapiens, UniProt P50613). As to the kind of experiment: In-vitro enzymatic inhibitory activity testing, CDK7 inhibition assay (Caliper EZ Reader II). The test is classed as biochemical. As to conditions: CDK7/cyclinH/MAT1 6 nM, 180 min at 27° C. The essentials:
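Enzyme preincubated 10 min with compound, then peptide substrate plus ATP added in 80 mM MES pH 6.5, 10 mM MgCl2 buffer; 180 min at 27 °C, stopped with EDTA.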

Test [4] has as its target CDK9/cyclinT1 complex (Homo sapiens, UniProt P50750). Briefly: In-vitro enzymatic inhibitory activity testing, CDK9 inhibition assay (Caliper EZ Reader II). As to conditions: CDK9/cyclinT1 8 nM, 180 min at 27° C. It is filed as biochemical. The essentials:
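Phosphorylated and unphosphorylated fluorescent peptide were resolved by mobility-shift electrophoresis, with IC50 taken from a nonlinear regression of dose-response data. Reactions ran 180 min at 27 °C in MES buffer pH 6.5 with MgCl2, after 10 min enzyme–compound preincubation, using 8 nM CDK9/cyclinT1 and 5-FAM-CDK9tide.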

Test [5] deals with T1, CDK12 (aa686-1082)/cyclinK complex (Homo sapiens, UniProt Q9NYV4).
T1 construct: A CDK12 (aa686-1082)/cyclinK complex (50 nM)
As to the kind of experiment: In-vitro enzymatic inhibitory activity testing, CDK12 inhibition assay (Caliper EZ Reader II). It is filed as biochemical. Conditions: CDK12/cyclinK 50 nM, 180 min at 27° C.; read-out: CDK12 IC50. The essentials: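 CDK12 (aa686-1082)/cyclinK complex at 50 nM was pre-incubated with compound for 10 min, then reacted 180 min at 27° C with ATP and 2 μM 5-FAM-CDK9tide in pH 6.5 MES buffer with 10 mM MgCl2. Reactions were EDTA-quenched and product resolved electrophoretically; IC50 from nonlinear curve fit.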

In test [6] the target is CDK2/cyclinE1 complex (Homo sapiens, UniProt P24941). As to the kind of experiment: In-vitro enzymatic inhibitory activity testing, CDK2 inhibition assay (Caliper EZ Reader II). The test is classed as biochemical. Conditions: CDK2/cyclinE1 0.5 nM, 180 min at 27° C. The essentials:
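CDK2/cyclinE1 (0.5 nM) phosphorylated 5-FAM-CDK7tide (2 μM) in MES buffer pH 6.5 with MgCl2, Tween 20 and BSA. Substrate and product were separated electrophoretically on a Caliper EZ Reader II. IC50 values came from nonlinear dose-response fits.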

Chain of CDK7/cyclinH/MAT1 complex (P50613 whole entry, species assumed): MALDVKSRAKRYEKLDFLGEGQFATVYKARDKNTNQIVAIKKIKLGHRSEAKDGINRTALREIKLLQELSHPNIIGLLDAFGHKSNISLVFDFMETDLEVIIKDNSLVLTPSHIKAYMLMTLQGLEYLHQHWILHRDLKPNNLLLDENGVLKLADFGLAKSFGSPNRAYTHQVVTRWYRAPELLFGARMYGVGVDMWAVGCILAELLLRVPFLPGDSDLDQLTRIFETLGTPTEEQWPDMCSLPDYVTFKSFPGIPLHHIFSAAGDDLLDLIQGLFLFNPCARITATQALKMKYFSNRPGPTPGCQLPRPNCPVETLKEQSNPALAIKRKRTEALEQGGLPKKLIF
Chain of CDK7/cyclinH/MAT1 complex (P51946 whole entry partner, species assumed): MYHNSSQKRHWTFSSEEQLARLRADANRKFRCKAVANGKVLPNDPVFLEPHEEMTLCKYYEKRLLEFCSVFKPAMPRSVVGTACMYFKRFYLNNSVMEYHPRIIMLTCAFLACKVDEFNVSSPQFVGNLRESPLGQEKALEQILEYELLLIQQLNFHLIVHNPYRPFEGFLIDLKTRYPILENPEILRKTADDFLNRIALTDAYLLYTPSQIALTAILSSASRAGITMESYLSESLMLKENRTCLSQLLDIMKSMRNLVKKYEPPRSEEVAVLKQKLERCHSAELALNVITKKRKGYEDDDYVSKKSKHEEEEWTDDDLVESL
Chain of CDK7/cyclinH/MAT1 complex (P51948 whole entry partner, species assumed): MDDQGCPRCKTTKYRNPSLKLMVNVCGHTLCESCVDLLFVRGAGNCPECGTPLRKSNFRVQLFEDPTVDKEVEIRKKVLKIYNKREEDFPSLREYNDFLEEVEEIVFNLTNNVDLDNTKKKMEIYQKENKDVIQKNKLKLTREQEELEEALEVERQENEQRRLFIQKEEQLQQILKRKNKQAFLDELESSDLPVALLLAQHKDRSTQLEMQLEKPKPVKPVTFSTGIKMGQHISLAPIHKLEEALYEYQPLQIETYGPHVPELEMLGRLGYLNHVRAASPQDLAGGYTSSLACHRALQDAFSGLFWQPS
T1 sequence (Q9NYV4 686-1082, species assumed): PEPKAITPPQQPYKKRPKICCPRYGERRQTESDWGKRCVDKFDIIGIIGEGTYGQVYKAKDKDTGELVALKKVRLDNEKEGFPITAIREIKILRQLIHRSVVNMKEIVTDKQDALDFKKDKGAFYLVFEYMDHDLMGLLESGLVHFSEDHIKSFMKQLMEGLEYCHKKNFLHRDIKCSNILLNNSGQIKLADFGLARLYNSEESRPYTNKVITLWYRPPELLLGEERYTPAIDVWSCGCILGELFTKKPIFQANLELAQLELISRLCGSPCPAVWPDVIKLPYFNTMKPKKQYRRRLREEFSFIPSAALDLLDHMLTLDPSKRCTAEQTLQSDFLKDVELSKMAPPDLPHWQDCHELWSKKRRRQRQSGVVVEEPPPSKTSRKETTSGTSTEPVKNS
T1 sequence (O75909 whole entry partner, species assumed, the tested form may be a part): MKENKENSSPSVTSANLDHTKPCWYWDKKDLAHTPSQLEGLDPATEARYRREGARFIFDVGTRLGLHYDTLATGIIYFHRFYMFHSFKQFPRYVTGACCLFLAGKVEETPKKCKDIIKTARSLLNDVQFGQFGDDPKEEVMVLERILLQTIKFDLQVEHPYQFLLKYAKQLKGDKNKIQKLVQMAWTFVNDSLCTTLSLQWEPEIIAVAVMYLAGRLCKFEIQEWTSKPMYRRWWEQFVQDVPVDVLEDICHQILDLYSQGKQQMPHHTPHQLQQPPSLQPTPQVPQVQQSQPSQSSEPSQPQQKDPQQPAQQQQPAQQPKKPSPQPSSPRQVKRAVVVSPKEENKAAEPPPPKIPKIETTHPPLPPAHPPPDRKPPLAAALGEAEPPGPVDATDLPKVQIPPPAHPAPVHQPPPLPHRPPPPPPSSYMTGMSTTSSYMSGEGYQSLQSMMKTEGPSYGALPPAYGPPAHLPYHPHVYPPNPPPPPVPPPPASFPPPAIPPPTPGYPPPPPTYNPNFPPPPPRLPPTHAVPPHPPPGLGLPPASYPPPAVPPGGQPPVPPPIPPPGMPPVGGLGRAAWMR
Chain of CDK9/cyclinT1 complex (P50750 whole entry, species assumed): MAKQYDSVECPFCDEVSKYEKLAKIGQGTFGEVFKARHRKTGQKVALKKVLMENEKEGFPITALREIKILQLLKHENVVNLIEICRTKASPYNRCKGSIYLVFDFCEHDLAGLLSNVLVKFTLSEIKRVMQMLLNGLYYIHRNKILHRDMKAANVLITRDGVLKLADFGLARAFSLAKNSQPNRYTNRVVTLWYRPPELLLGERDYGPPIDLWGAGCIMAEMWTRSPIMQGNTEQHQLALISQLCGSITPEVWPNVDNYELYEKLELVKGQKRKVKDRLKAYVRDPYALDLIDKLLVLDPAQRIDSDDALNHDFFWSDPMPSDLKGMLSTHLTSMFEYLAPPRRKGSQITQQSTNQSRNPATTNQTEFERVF
Chain of CDK9/cyclinT1 complex (O60563 whole entry partner, species assumed): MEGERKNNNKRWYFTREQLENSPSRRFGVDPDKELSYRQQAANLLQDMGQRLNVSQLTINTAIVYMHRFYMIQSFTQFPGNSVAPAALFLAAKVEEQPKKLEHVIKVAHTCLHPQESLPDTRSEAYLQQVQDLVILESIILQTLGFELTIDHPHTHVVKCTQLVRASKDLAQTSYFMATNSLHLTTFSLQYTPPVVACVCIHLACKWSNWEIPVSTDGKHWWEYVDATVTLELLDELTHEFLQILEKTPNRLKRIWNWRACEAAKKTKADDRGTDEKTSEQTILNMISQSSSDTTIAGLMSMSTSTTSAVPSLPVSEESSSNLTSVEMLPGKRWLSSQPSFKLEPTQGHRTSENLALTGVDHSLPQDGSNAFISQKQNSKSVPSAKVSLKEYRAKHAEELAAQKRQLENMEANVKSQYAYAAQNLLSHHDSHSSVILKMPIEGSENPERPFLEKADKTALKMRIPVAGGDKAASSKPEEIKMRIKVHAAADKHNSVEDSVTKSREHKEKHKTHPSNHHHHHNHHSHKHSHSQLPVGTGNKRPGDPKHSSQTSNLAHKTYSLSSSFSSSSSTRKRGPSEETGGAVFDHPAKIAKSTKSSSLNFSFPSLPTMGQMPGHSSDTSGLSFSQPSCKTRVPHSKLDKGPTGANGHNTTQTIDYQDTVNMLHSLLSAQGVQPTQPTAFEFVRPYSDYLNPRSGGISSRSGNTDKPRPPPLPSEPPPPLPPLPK

Take `FC(F)(F)c1cnc(NC2CCC3CNCC32)nc1-c1c[nH]c2nc(N3CCOCC3)ccc12` (stereo not drawn) [Compound 55, N-(4-(6-morpholinyl-1H-pyrrolo[2,3-b]pyridin-3-yl)-5-(trifluoromethyl)pyrimidin-2-yl)octahydrocyclopenta[c]pyrrol-4-amine]: the IC50 is 0.02 to 0.2 µM in test [1] (Homo sapiens, A2780, 72 h); 0.2 to 5 µM in test [2] (Homo sapiens, HCC70, 72 h); 0.02 to 0.2 µM in test [3]; above 50 µM in test [4]; above 50 µM in test [5]; 5 to 50 µM in test [6].

Turning to `CC(C)C(O)CNc1ncc(C(F)(F)F)c(-c2c[nH]c3c(P(C)(C)=O)cccc23)n1` (stereo not drawn) [Compound 162, (3-(2-((2-hydroxy-3-methylbutyl)amino)-5-(trifluoromethyl)pyrimidin-4-yl)-1H-indole-7-yl)dimethylphosphine oxide], the IC50 in test [1] (Homo sapiens, A2780, 72 h) was 0.02 to 0.2 µM; in test [2] (Homo sapiens, HCC70, 72 h) it was 0.2 to 5 µM; in test [3], 0.02 to 0.2 µM; in test [4] it was above 50 µM; in test [5], above 50 µM; in test [6], 5 to 50 µM.

`CP(C)(=O)c1cccc2c(-c3nc(N[C@@H]4CCC45CNC5)ncc3C(F)(F)F)c[nH]c12` [Compound 80]: the IC50 was below 0.02 µM in test [1] (Homo sapiens, A2780, 72 h); below 0.02 µM in test [2] (Homo sapiens, HCC70, 72 h); below 0.02 µM in test [3]; 5 to 50 µM in test [4]; 5 to 50 µM in test [5]; 0.2 to 5 µM in test [6].

Take `FC(F)(F)c1cnc(NC2CCCNCC2)nc1-c1c[nH]c2nc(N3CCOCC3)ccc12` (single isomer, unassigned) [Compound 48]: the IC50 in test [1] (Homo sapiens, A2780, 72 h) lay in the range of 0.2 to 5 µM; in test [2] (Homo sapiens, HCC70, 72 h), 0.2 to 5 µM; in test [3], 0.02 to 0.2 µM; in test [4], 5 to 50 µM; in test [5] it was 0.2 to 5 µM; in test [6] it was 0.2 to 5 µM.

For the compound `CC(O)[C@H](C)Nc1ncc(C(F)(F)F)c(-c2c[nH]c3c(P(C)(C)=O)cccc23)n1` (mixture of isomers) [Compound 128, (3-(2-(((2S)-3-hydroxybutan-2-yl)amino)-5-(trifluoromethyl)pyrimidin-4-yl)-1H-indole-7-yl)dimethylphosphine oxide], the IC50 was below 0.02 µM in test [1] (Homo sapiens, A2780, 72 h); 0.02 to 0.2 µM in test [2] (Homo sapiens, HCC70, 72 h); below 0.02 µM in test [3]; above 50 µM in test [4]; above 50 µM in test [5]; 5 to 50 µM in test [6].

As to `CP(C)(=O)c1cccc2c(-c3nc(NC(CO)CO)ncc3C(F)(F)F)c[nH]c12` [Compound 194, (3-(2-((1,3-dihydroxypropan-2-yl)amino)-5-(trifluoromethyl)pyrimidin-4-yl)-1H-indole-7-yl)dimethylphosphine oxide], the IC50 in test [1] (Homo sapiens, A2780, 72 h) is below 0.02 µM; in test [2] (Homo sapiens, HCC70, 72 h) it was 0.02 to 0.2 µM; in test [3] it was below 0.02 µM; in test [4] it was above 50 µM; in test [5], above 50 µM; in test [6], 5 to 50 µM.

In the case of `FC(F)(F)c1cnc(NCC2CCNC2)nc1-c1c[nH]c2nc(N3CCOCC3)ccc12` (stereo not drawn) [Compound 52, 4-(6-morpholinyl-1H-pyrrolo[2,3-b]pyridin-3-yl)-N-(pyrrolidin-3-ylmethyl)-5-(trifluoromethyl)pyrimidin-2-amine], the IC50 in test [1] (Homo sapiens, A2780, 72 h) lay within 0.2 to 5 µM; in test [2] (Homo sapiens, HCC70, 72 h), 0.2 to 5 µM; in test [3], 0.02 to 0.2 µM; in test [4] it was 5 to 50 µM; in test [5] it was 5 to 50 µM; in test [6], 5 to 50 µM.

Consider `CP(C)(=O)c1c(C#N)ccc2c(-c3nc(N[C@H]4CC[C@H](N)C4)ncc3C(F)(F)F)c[nH]c12` [Compound 78, 3-(2-(((1S,3S)-3-aminocyclopentyl)amino)-5-(trifluoromethyl)pyrimidin-4-yl)-7-(dimethylphosphoryl)-1H-indole-6-carbonitrile], for which the IC50 in test [1] (Homo sapiens, A2780, 72 h) was below 0.02 µM; in test [2] (Homo sapiens, HCC70, 72 h) it was below 0.02 µM; in test [3] it was below 0.02 µM; in test [4], 5 to 50 µM; in test [5] it was 5 to 50 µM; in test [6], 5 to 50 µM.

With `CP(C)(=O)c1cccc2c(-c3nc(NCC4(O)CCOC4)ncc3C(F)(F)F)c[nH]c12` (single isomer, unassigned) [Compound 121], the IC50 in test [1] (Homo sapiens, A2780, 72 h) is 0.2 to 5 µM; in test [2] (Homo sapiens, HCC70, 72 h) it was 0.02 to 0.2 µM; in test [3], 0.02 to 0.2 µM; in test [4], above 50 µM; in test [5] it was above 50 µM; in test [6], 5 to 50 µM.

For the compound `FC(F)(F)c1cnc(NC2CCCNCC2)nc1-c1c[nH]c2nc(N3CCOCC3)ccc12` (single isomer, unassigned) [Compound 49], the IC50 in test [1] was 0.2 to 5 µM; in test [2], 0.2 to 5 µM; in test [3], 0.2 to 5 µM; in test [4], above 50 µM; in test [5] it was 5 to 50 µM; in test [6] it was 5 to 50 µM.

Turning to `FC(F)(F)c1cnc(NC2CCC3(CCNC3)C2)nc1-c1c[nH]c2nc(N3CCOCC3)ccc12` (stereo not drawn) [Compound 40, N-(4-(6-morpholinyl-1H-pyrrolo[2,3-b]pyridin-3-yl)-5-(trifluoromethyl)pyrimidin-2-yl)-2-azaspiro[4.4]non-7-amine], the IC50 lay within 0.02 to 0.2 µM in test [1] (Homo sapiens, A2780, 72 h); 0.2 to 5 µM in test [2] (Homo sapiens, HCC70, 72 h); 0.02 to 0.2 µM in test [3]; 5 to 50 µM in test [4]; 5 to 50 µM in test [5]; 5 to 50 µM in test [6].

Regarding `C[C@H](O)CNc1ncc(C(F)(F)F)c(-c2c[nH]c3c(P(C)(C)=O)cccc23)n1` [Compound 173, (S)-(3-(2-((2-hydroxypropyl)amino)-5-(trifluoromethyl)pyrimidin-4-yl)-1H-indole-7-yl)dimethylphosphine oxide], the half-maximal inhibitory concentration (IC50) in test [1] (Homo sapiens, A2780, 72 h) was 0.02 to 0.2 µM; in test [2] (Homo sapiens, HCC70, 72 h) it was 0.02 to 0.2 µM; in test [3], below 0.02 µM; in test [4], above 50 µM; in test [5] it was above 50 µM; in test [6], 5 to 50 µM.

As to `CC1(C)COCC(Nc2ncc(C(F)(F)F)c(-c3c[nH]c4c(P(C)(C)=O)cccc34)n2)CN1` (single isomer, unassigned) [Compound 92, (3-(2-((3,3-dimethyl-1,4-oxazepan-6-yl)amino)-5-(trifluoromethyl)pyrimidin-4-yl)-1H-indole-7-yl)dimethylphosphine oxide], the 50% inhibitory concentration (IC50) in test [1] is below 0.02 µM; in test [2], 0.02 to 0.2 µM; in test [3], below 0.02 µM; in test [4] it was 5 to 50 µM; in test [5], 5 to 50 µM; in test [6], 5 to 50 µM.

For `CP(C)(=O)c1cccc2c(-c3nc(NCC4(O)CC4)ncc3C(F)(F)F)c[nH]c12` [Compound 164], the 50% inhibitory concentration (IC50) in test [1] (Homo sapiens, A2780, 72 h) is 0.02 to 0.2 µM; in test [2] (Homo sapiens, HCC70, 72 h), 0.02 to 0.2 µM; in test [3], below 0.02 µM; in test [4], above 50 µM; in test [5], above 50 µM; in test [6], 5 to 50 µM.

Take `CC(C)[C@@H](CO)Nc1ncc(C(F)(F)F)c(-c2c[nH]c3c(P(C)(C)=O)cccc23)n1` [Compound 115, (S)-(3-(2-((1-hydroxy-3-methylbutan-2-yl)amino)-5-(trifluoromethyl)pyrimidin-4-yl)-1H-indole-7-yl)dimethylphosphine oxide]: the IC50 in test [1] (Homo sapiens, A2780, 72 h) is 0.02 to 0.2 µM; in test [2] (Homo sapiens, HCC70, 72 h) it was 0.02 to 0.2 µM; in test [3] it was 0.02 to 0.2 µM; in test [4] it was above 50 µM; in test [5], above 50 µM; in test [6], 5 to 50 µM.

With `CC(C)(O)CNc1ncc(C(F)(F)F)c(-c2c[nH]c3c(P(C)(C)=O)cccc23)n1` [Compound 95, (3-(2-((2-hydroxy-2-methylpropyl)amino)-5-(trifluoromethyl)pyrimidin-4-yl)-1H-indole-7-yl)dimethylphosphine oxide], the IC50 in test [1] (Homo sapiens, A2780, 72 h) is 0.02 to 0.2 µM; in test [2] (Homo sapiens, HCC70, 72 h), 0.02 to 0.2 µM; in test [3] it was below 0.02 µM; in test [4], above 50 µM; in test [5], above 50 µM; in test [6], 5 to 50 µM.

`CP(C)(=O)c1cccc2c(-c3nc(NC4CC45CCNC5)ncc3C(F)(F)F)c[nH]c12` (single isomer, unassigned) [Compound 109]: the IC50 in test [1] was 0.02 to 0.2 µM; in test [2], 0.02 to 0.2 µM; in test [3], 0.02 to 0.2 µM; in test [4], above 50 µM; in test [5], above 50 µM; in test [6], 5 to 50 µM.

Consider `CP(C)(=O)c1cccc2c(-c3nc(NCC(O)C(F)(F)F)ncc3C(F)(F)F)c[nH]c12` (stereo not drawn) [Compound 145, Dimethyl(3-(2-((3,3,3-trifluoro-2-hydroxypropyl)amino)-5-(trifluoromethyl)pyrimidin-4-yl)-1H-indole-7-yl)phosphine oxide], for which the IC50 was 0.02 to 0.2 µM in test [1] (Homo sapiens, A2780, 72 h); 0.02 to 0.2 µM in test [2] (Homo sapiens, HCC70, 72 h); 0.02 to 0.2 µM in test [3]; above 50 µM in test [4]; above 50 µM in test [5]; above 50 µM in test [6].
